According to article PMC4195671, “Luteolin Suppresses Cancer Cell Proliferation by Targeting Vaccinia-Related Kinase 1” (PLoS ONE, 2014):
pKd: −log10 of the molar value. Like-named read-outs stand apart in the source and are kept apart here.

How the values were obtained:
[1] = biological target: T1, Vaccinia-related kinase 1 (VRK1) (Homo sapiens, UniProt Q99986); assay: biochemical; type: binding
[2] = biological target: T1, Vaccinia-related kinase 1 (VRK1); assay: biochemical; type: binding; remark: listed apart in the source

T1 sequence (Q99986 whole entry): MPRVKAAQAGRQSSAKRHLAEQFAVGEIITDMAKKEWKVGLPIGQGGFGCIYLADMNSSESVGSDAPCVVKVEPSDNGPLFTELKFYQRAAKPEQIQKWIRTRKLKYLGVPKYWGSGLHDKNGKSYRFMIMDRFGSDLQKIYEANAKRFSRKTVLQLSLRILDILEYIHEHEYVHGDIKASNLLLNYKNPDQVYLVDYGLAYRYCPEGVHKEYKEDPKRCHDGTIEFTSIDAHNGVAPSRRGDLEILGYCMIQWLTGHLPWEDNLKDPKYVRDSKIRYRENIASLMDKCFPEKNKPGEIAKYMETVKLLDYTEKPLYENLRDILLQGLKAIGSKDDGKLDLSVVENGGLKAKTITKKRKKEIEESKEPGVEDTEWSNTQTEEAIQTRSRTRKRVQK

| Structure (SMILES) | pKd [1] | pKd [2] |
| --- | --- | --- |
| COc1c(O)cc(O)c2c(=O)cc(-c3ccccc3)oc12 [wogonin] | 3.92 | – |
| COc1ccc(-c2cc(=O)c3c(O)c(OC)c(O)cc3o2)cc1OC [eupatilin] | 3.74 | – |
| O=c1cc(-c2ccc(O)c(O)c2)oc2cc(O)cc(O)c12 [luteolin, 3′,4′,5,7-tetrahydroxyflavone] | – | 5.24 |
